Organism: Rattus norvegicus
Test: Open TG-GATES - Regimen: Single
Type: toxicity, organism-based, Sprague-Dawley
Parameters: regimen Single, gender Male, age 6 weeks
Settings: in vivo, iv, route intravenous injection; for K / LDH / Na / PL / RALB / TBIL / TC / TG / TP / gamma-GTP / A/G / ALP / ALT / AST / BUN / CRE / Ca / Cl / DBIL / GLC / IP: tissue Plasma; for APTT / Bas / Eos / Fbg / Hb / Ht / Lym / MCH / MCHC / MCV / Mono / Neu / PT / Plat / RBC / Ret / WBC: tissue Blood; for KIDNEY_L / KIDNEY_R / KIDNEY_TOTAL: tissue Kidney; for LIVER: tissue Liver
[1] = 3 mg/kg, 3 h, dose level Middle
[2] = 3 mg/kg, 6 h, dose level Middle
[3] = 3 mg/kg, 9 h, dose level Middle
[4] = 3 mg/kg, 24 h, dose level Middle

Compound: C[C@@H]1C[C@@H]([C@H](O)CC2CC(=O)NC(=O)C2)C(=O)[C@@H](C)C1 [CYCLOHEXIMIDE]
- K (1 mg/kg, 24 h, dose level Low): 4.4 meq/L
- LDH (1 mg/kg, 24 h, dose level Low): 149.2 IU/L
- Na (1 mg/kg, 24 h, dose level Low): 139.8 meq/L
- PL (1 mg/kg, 24 h, dose level Low): 110.4 mg/dL
- RALB (1 mg/kg, 24 h, dose level Low): 2.6 g/dL
- TBIL (1 mg/kg, 24 h, dose level Low): 0.028 mg/dL
- TC (1 mg/kg, 24 h, dose level Low): 51.4 mg/dL
- TG (1 mg/kg, 24 h, dose level Low): 169.6 mg/dL
- TP (1 mg/kg, 24 h, dose level Low): 4.6 g/dL
- gamma-GTP (1 mg/kg, 24 h, dose level Low): 1.6 IU/L
- TERMINAL_BW [1]: 221.6 g
- APTT [1]: 22.4 s
- Bas [1]: 0%
- Eos [1]: 0.6%
- Fbg [1]: 296.6 mg/dL
- Hb [1]: 13.7 g/dL
- Ht [1]: 41.1%
- Lym [1]: 73.2%
- MCH [1]: 21.6 pg
- MCHC [1]: 33.4%
- MCV [1]: 64.6 fL
- Mono [1]: 0.8%
- Neu [1]: 24.8%
- PT [1]: 17.4 s
- Plat [1]: 132.2 x10_4/uL
- RBC [1]: 636.8 x10_4/ul
- Ret [1]: 9.2%
- WBC [1]: 217.3 x10_2/uL
- KIDNEY_L [1]: 1 g
- KIDNEY_R [1]: 1 g
- KIDNEY_TOTAL [1]: 2 g
- LIVER [1]: 9.6 g
- A/G [1]: 1.3
- ALP [1]: 1376.2 IU/L
- ALT [1]: 58 IU/L
- AST [1]: 140.8 IU/L
- BUN [1]: 32.6 mg/dL
- CRE [1]: 0.1 mg/dL
- Ca [1]: 9.8 mg/dL
- Cl [1]: 109.4 meq/L
- DBIL [1]: 0.004 mg/dL
- GLC [1]: 170.4 mg/dL
- IP [1]: 9.8 mg/dL
- K [1]: 4.7 meq/L
- LDH [1]: 364.6 IU/L
- Na [1]: 142.2 meq/L
- PL [1]: 80 mg/dL
- RALB [1]: 2.8 g/dL
- TBIL [1]: 0.018 mg/dL
- TC [1]: 59.4 mg/dL
- TG [1]: 52.4 mg/dL
- TP [1]: 5.1 g/dL
- gamma-GTP [1]: 2 IU/L
- TERMINAL_BW [2]: 221.4 g
- APTT [2]: 25.3 s
- Bas [2]: 0%
- Eos [2]: 0.4%
- Fbg [2]: 276 mg/dL
- Hb [2]: 14.1 g/dL
- Ht [2]: 42.1%
- Lym [2]: 60.4%
- MCH [2]: 21.2 pg
- MCHC [2]: 33.6%
- MCV [2]: 63.1 fL
- Mono [2]: 1%
- Neu [2]: 38%
- PT [2]: 21.1 s
- Plat [2]: 123.7 x10_4/uL
- RBC [2]: 668 x10_4/ul
- Ret [2]: 8.3%
- WBC [2]: 191.1 x10_2/uL
- KIDNEY_L [2]: 1 g
- KIDNEY_R [2]: 1 g
- KIDNEY_TOTAL [2]: 2 g
- LIVER [2]: 8.6 g
- A/G [2]: 1.4
- ALP [2]: 1008.6 IU/L
- ALT [2]: 63 IU/L
- AST [2]: 134.2 IU/L
- BUN [2]: 29.2 mg/dL
- CRE [2]: 0.1 mg/dL
- Ca [2]: 7.2 mg/dL
- Cl [2]: 104.2 meq/L
- DBIL [2]: 0.006 mg/dL
- GLC [2]: 139.6 mg/dL
- IP [2]: 11.6 mg/dL
- K [2]: 4.2 meq/L
- LDH [2]: 232.2 IU/L
- Na [2]: 138.2 meq/L
- PL [2]: 62.8 mg/dL
- RALB [2]: 2.8 g/dL
- TBIL [2]: 0.014 mg/dL
- TC [2]: 39.6 mg/dL
- TG [2]: 66.4 mg/dL
- TP [2]: 4.9 g/dL
- gamma-GTP [2]: 1.8 IU/L
- TERMINAL_BW [3]: 215.9 g
- APTT [3]: 27.9 s
- Bas [3]: 0%
- Eos [3]: 0.6%
- Fbg [3]: 255.2 mg/dL
- Hb [3]: 13.6 g/dL
- Ht [3]: 41%
- Lym [3]: 56.4%
- MCH [3]: 21.1 pg
- MCHC [3]: 33.1%
- MCV [3]: 63.7 fL
- Mono [3]: 1.2%
- Neu [3]: 41.8%
- PT [3]: 22.1 s
- Plat [3]: 117.3 x10_4/uL
- RBC [3]: 643 x10_4/ul
- Ret [3]: 7.8%
- WBC [3]: 199.4 x10_2/uL
- KIDNEY_L [3]: 1 g
- KIDNEY_R [3]: 1 g
- KIDNEY_TOTAL [3]: 1.9 g
- LIVER [3]: 8.6 g
- A/G [3]: 1.5
- ALP [3]: 1011.2 IU/L
- ALT [3]: 51.4 IU/L
- AST [3]: 111 IU/L
- BUN [3]: 20.8 mg/dL
- CRE [3]: 0.1 mg/dL
- Ca [3]: 8 mg/dL
- Cl [3]: 105.6 meq/L
- DBIL [3]: 0.012 mg/dL
- GLC [3]: 151.6 mg/dL
- IP [3]: 8.9 mg/dL
- K [3]: 3.8 meq/L
- LDH [3]: 189.4 IU/L
- Na [3]: 139.4 meq/L
- PL [3]: 75.8 mg/dL
- RALB [3]: 2.8 g/dL
- TBIL [3]: 0.012 mg/dL
- TC [3]: 47.2 mg/dL
- TG [3]: 70.2 mg/dL
- TP [3]: 4.9 g/dL
- gamma-GTP [3]: 1 IU/L
- TERMINAL_BW [4]: 220.9 g
- APTT [4]: 30.4 s
- Bas [4]: 0%
- Eos [4]: 0%
- Fbg [4]: 293.6 mg/dL
- Hb [4]: 13.2 g/dL
- Ht [4]: 39.9%
- Lym [4]: 66.4%
- MCH [4]: 20.3 pg
- MCHC [4]: 33%
- MCV [4]: 61.6 fL
- Mono [4]: 1.4%
- Neu [4]: 30.8%
- PT [4]: 18.9 s
- Plat [4]: 112.9 x10_4/uL
- RBC [4]: 647.6 x10_4/ul
- Ret [4]: 5.3%
- WBC [4]: 276.2 x10_2/uL
- KIDNEY_L [4]: 1 g
- KIDNEY_R [4]: 1 g
- KIDNEY_TOTAL [4]: 2 g
- LIVER [4]: 9.6 g
- A/G [4]: 1.3
- ALP [4]: 739.4 IU/L
- ALT [4]: 25.2 IU/L
- AST [4]: 65.8 IU/L
- BUN [4]: 11 mg/dL
- CRE [4]: 0.2 mg/dL

— ChEMBL document CHEMBL3885861, “Open TG-GATES”
